{
  "source": "patent US20140011889A1",
  "about": "“Resveratrol-Containing Compositions and Methods of Use for Cardiac-Related Diseases” (Resveratrol Partners, LLC, priority 2010, published 2014)",
  "key": {"[1]": {"system": "biological processes (GO), cardiac tissue", "assay": "Biological processes (GO) affected by altered gene expression in cardiac tissue", "type": "in vivo, mice"}, "[2]": {"system": "isolated perfused rat hearts", "assay": "Isolated working rat heart, ischemia/reperfusion, cardiac function (Example 6)", "type": "in vivo, Sprague-Dawley rats", "procedure": "Isolated working heart preparation. After completing the feeding protocol, the animals were anesthetized with sodium pentobarbital (80 mg/kg, intraperitoneally) (Abbott Laboratories, North Chicago, Ill., USA), and heparin sodium (500 U/kg, intravenously) (Elkins-Sinn Inc., Cherry Hill, N.J., USA) was used as an anticoagulant. After deep anesthesia, the hearts were excised, the aorta was cannulated, and the hearts were perfused through the aorta in Langendorff mode at a constant (100 cm of water) perfusion pressure at 37° C. with Krebs-Henseleit bicarbonate for a 5 min washout period as described previously. Ray et al. (1999) Free Rad Biol Med 27:160-9.\nDuring the washout period, the left atrium was cannulated, and the Langendorff preparation was switched to the working mode for 10 min with a left atrial filling pressure of 17 cm H2O; the aortic afterload pressure was set to 100 cm of water. At the end of 10 min, the baseline cardiac function such as heart rate (HR, beats/min), aortic flow (AF, ml/min), coronary flow (CF, ml/min), left ventricular developed pressure (LVDP, mmHg) and first derivative of developed pressure (LVdp/dt, mmHg/sec) were recorded. Later, 30 min of global ischemia was initiated by clamping the left atrial inflow and aortic outflow lines at a point close to their origins. After 30 min, reperfusion was initiated for 120 min by unclamping the atrial inflow and aortic outflow lines. The first 10 min of reperfusion was in Langendorff mode to avoid ventricular fibrillation, and then the hearts were switched to an anterograde working mode. Ray et al. (1999) Free Rad Biol Med 27:160-9.\nCardiac function assessment. After 10 min of the working mode, baseline parameters were recorded. To monitor the recovery of the heart, the left ventricular cardiac function was recorded after 60 and 120 min of reperfusion. Six rats were present in each group. […] Coronary flow was measured by timed collection of the coronary effluent dripping from the heart. During the entire experiment, the aortic pressure was monitored using a Gould P23XL pressure transducer (Gould Instrument Systems Inc., Valley View, Ohio, USA) connected to the side arm of the aortic cannula; the signal was amplified using a Gould 6600 series signal conditioner (Gould Instrument Systems Inc.). […] The heart rate, left ventricular developed pressure, and the first derivative of developed pressure were all calculated from the continuously generated pressure signal.\nAt the end of the 21 days, the animals were sacrificed, their hearts were excised and isolated, and ischemia was induced for 30 min by terminating the coronary flow (as described in the methods section). This was then followed by 2 h of reperfusion in the working mode; during the reperfusion left ventricular function was monitored."}},
  "data": [
    {"smiles": "Oc1ccc(/C=C/c2cc(O)cc(O)c2)cc1", "note": "[resveratrol, 3,4′,5-trihydroxy-trans-stilbene]", "values": [
      {"measurement": "genes changed, GO: 0006596 Polyamine Biosynthetic Process", "setting": "[1]; 5 genes in series", "result": 2},
      {"measurement": "genes changed, GO: 0006625 Protein Targeting To Peroxisome", "setting": "[1]; 5 genes in series", "result": 2},
      {"measurement": "genes changed, GO: 0006983 ER Overload Response", "setting": "[1]; 5 genes in series", "result": 2},
      {"measurement": "genes changed, GO: 0006353 Transcription Termination", "setting": "[1]; 6 genes in series", "result": 2},
      {"measurement": "genes changed, GO: 0045351 Interferon Type I Biosynthetic Process", "setting": "[1]; 6 genes in series", "result": 2},
      {"measurement": "genes changed, GO: 0001958 Endochondral Ossification", "setting": "[1]; 8 genes in series", "result": 2},
      {"measurement": "genes changed, GO: 0007091 Mitotic Metaphase/Anaphase Transition", "setting": "[1]; 8 genes in series", "result": 2},
      {"measurement": "genes changed, GO: 0007143 Female Meiosis", "setting": "[1]; 8 genes in series", "result": 2},
      {"measurement": "genes changed, GO: 0045577 Regulation Of B Cell Differentiation", "setting": "[1]; 8 genes in series", "result": 2},
      {"measurement": "genes changed, GO: 0046330 Positive Regulation Of JNK Cascade", "setting": "[1]; 8 genes in series", "result": 2},
      {"measurement": "genes changed, GO: 0006825 Copper Ion Transport", "setting": "[1]; 9 genes in series", "result": 3},
      {"measurement": "genes changed, GO: 0033554 Cellular Response To Stress", "setting": "[1]; 14 genes in series", "result": 3},
      {"measurement": "genes changed, GO: 0006888 ER To Golgi Vesicle-Mediated Transport", "setting": "[1]; 16 genes in series", "result": 3},
      {"measurement": "genes changed, GO: 0006919 Caspase Activation", "setting": "[1]; 16 genes in series", "result": 3},
      {"measurement": "genes changed, GO: 0000723 Telomere Maintenance", "setting": "[1]; 17 genes in series", "result": 3},
      {"measurement": "genes changed, GO: 0030041 Actin Filament Polymerization", "setting": "[1]; 17 genes in series", "result": 3},
      {"measurement": "genes changed, GO: 0043280 Positive Regulation Of Caspase Activity", "setting": "[1]; 17 genes in series", "result": 3},
      {"measurement": "genes changed, GO: 0051016 Barbed-End Actin Filament Capping", "setting": "[1]; 17 genes in series", "result": 3},
      {"measurement": "genes changed, GO: 0008299 Isoprenoid Biosynthetic Process", "setting": "[1]; 19 genes in series", "result": 3},
      {"measurement": "genes changed, GO: 0006446 Regulation Of Translational Initiation", "setting": "[1]; 20 genes in series", "result": 4},
      {"measurement": "genes changed, GO: 0043281 Regulation Of Caspase Activity", "setting": "[1]; 27 genes in series", "result": 5},
      {"measurement": "genes changed, GO: 0008064 Regulation Of Actin Polymerization And/Or Depolymerization", "setting": "[1]; 30 genes in series", "result": 4},
      {"measurement": "genes changed, GO: 0050673 Epithelial Cell Proliferation", "setting": "[1]; 30 genes in series", "result": 4},
      {"measurement": "genes changed, GO: 0005977 Glycogen Metabolic Process", "setting": "[1]; 31 genes in series", "result": 7},
      {"measurement": "genes changed, GO: 0030832 Regulation Of Actin Filament Length", "setting": "[1]; 31 genes in series", "result": 4},
      {"measurement": "genes changed, GO: 0051258 Protein Polymerization", "setting": "[1]; 32 genes in series", "result": 6},
      {"measurement": "genes changed, GO: 0006112 Energy Reserve Metabolic Process", "setting": "[1]; 35 genes in series", "result": 7},
      {"measurement": "genes changed, GO: 0048193 Golgi Vesicle Transport", "setting": "[1]; 37 genes in series", "result": 6},
      {"measurement": "genes changed, GO: 0008154 Actin Polymerization And/Or Depolymerization", "setting": "[1]; 39 genes in series", "result": 6},
      {"measurement": "genes changed, GO: 0006413 Translational Initiation", "setting": "[1]; 40 genes in series", "result": 6},
      {"measurement": "genes changed, GO: 0043085 Positive Regulation Of Enzyme Activity", "setting": "[1]; 40 genes in series", "result": 5},
      {"measurement": "genes changed, GO: 0045454 Cell Redox Homeostasis", "setting": "[1]; 40 genes in series", "result": 6},
      {"measurement": "genes changed, GO: 0005976 Polysaccharide Metabolic Process", "setting": "[1]; 42 genes in series", "result": 9},
      {"measurement": "genes changed, GO: 0007018 Microtubule-Based Movement", "setting": "[1]; 72 genes in series", "result": 9},
      {"measurement": "genes changed, GO: 0007178 Transmembrane Receptor Protein Serine/Threonine Kinase Signaling Pathway", "setting": "[1]; 75 genes in series", "result": 7},
      {"measurement": "genes changed, GO: 0006511 Ubiquitin-Dependent Protein Catabolic Process", "setting": "[1]; 109 genes in series", "result": 9},
      {"measurement": "genes changed, GO: 0019941 Modification-Dependent Protein Catabolic Process", "setting": "[1]; 111 genes in series", "result": 9},
      {"measurement": "genes changed, GO: 0006457 Protein Folding", "setting": "[1]; 124 genes in series", "result": 13},
      {"measurement": "genes changed, GO: 0007017 Microtubule-Based Process", "setting": "[1]; 155 genes in series", "result": 12},
      {"measurement": "genes changed, GO: 0006605 Protein Targeting", "setting": "[1]; 161 genes in series", "result": 12},
      {"measurement": "genes changed, GO: 0008380 RNA Splicing", "setting": "[1]; 162 genes in series", "result": 12},
      {"measurement": "genes changed, GO: 0006281 DNA Repair", "setting": "[1]; 178 genes in series", "result": 13},
      {"measurement": "genes changed, GO: 0006974 Response To DNA Damage Stimulus", "setting": "[1]; 217 genes in series", "result": 15},
      {"measurement": "genes changed, GO: 0044262 Cellular Carbohydrate Metabolic Process", "setting": "[1]; 221 genes in series", "result": 18},
      {"measurement": "genes changed, GO: 0050790 Regulation Of Catalytic Activity", "setting": "[1]; 241 genes in series", "result": 21},
      {"measurement": "genes changed, GO: 0005975 Carbohydrate Metabolic Process", "setting": "[1]; 316 genes in series", "result": 21},
      {"measurement": "genes changed, GO: 0007264 Small Gtpase Mediated Signal Transduction", "setting": "[1]; 320 genes in series", "result": 22},
      {"measurement": "genes changed, GO: 0006412 Translation", "setting": "[1]; 338 genes in series", "result": 25},
      {"measurement": "genes changed, GO: 0006512 Ubiquitin Cycle", "setting": "[1]; 356 genes in series", "result": 27},
      {"measurement": "genes changed, GO: 0006886 Intracellular Protein Transport", "setting": "[1]; 357 genes in series", "result": 26},
      {"measurement": "genes changed, GO: 0006091 Generation Of Precursor Metabolites And Energy", "setting": "[1]; 390 genes in series", "result": 24},
      {"measurement": "genes changed, GO: 0007010 Cytoskeleton Organization And Biogenesis", "setting": "[1]; 403 genes in series", "result": 26},
      {"measurement": "genes changed, GO: 0046907 Intracellular Transport", "setting": "[1]; 523 genes in series", "result": 43},
      {"measurement": "genes changed, GO: 0009059 Macromolecule Biosynthetic Process", "setting": "[1]; 525 genes in series", "result": 35},
      {"measurement": "genes changed, GO: 0015031 Protein Transport", "setting": "[1]; 581 genes in series", "result": 38},
      {"measurement": "genes changed, GO: 0045184 Establishment Of Protein Localization", "setting": "[1]; 610 genes in series", "result": 38},
      {"measurement": "genes changed, GO: 0051649 Establishment Of Cellular Localization", "setting": "[1]; 653 genes in series", "result": 45},
      {"measurement": "genes changed, GO: 0008104 Protein Localization", "setting": "[1]; 663 genes in series", "result": 38},
      {"measurement": "genes changed, GO: 0044249 Cellular Biosynthetic Process", "setting": "[1]; 710 genes in series", "result": 45},
      {"measurement": "genes changed, GO: 0006996 Organelle Organization And Biogenesis", "setting": "[1]; 897 genes in series", "result": 53},
      {"measurement": "genes changed, GO: 0009058 Biosynthetic Process", "setting": "[1]; 979 genes in series", "result": 60},
      {"measurement": "share of the 220 biological processes with affected genes, calorie restricted mice", "setting": "[1]; mouse cardiac tissue", "result": "failed to affect any genes in any of these processes"},
      {"measurement": "aortic flow and developed pressure", "setting": "[2]; 100 mg/kg, gavage 21 days", "result": "no aortic flow or developed pressure"},
      {"measurement": "cardioprotection (aortic flow, LVDP, maximum LVdP/dt)", "setting": "[2]; 2.5 and 25 mg/kg, gavage 21 days, 30 min ischemia, 2 h reperfusion", "result": "conferred cardioprotection"},
      {"measurement": "ventricular function (aortic flow, LVDP, maximum LVdP/dt)", "setting": "[2]; above 25 mg/kg, gavage 21 days", "result": "ventricular function was deteriorated"},
      {"measurement": "hormetic action (dose-response of cardioprotection)", "setting": "[2]; rat, doses up to 100 mg/kg", "result": "displayed hormetic action"}
    ]}
  ]
}
